Experimental findings from US4971983A, “Substituted 2-aminobenzothiazoles and derivatives useful as cerebrovascular agents” (Warner-Lambert Company, priority 1989, dated 1990) are described below.

Molecules are shown by their SMILES. Like-named read-outs stand apart in the source and are kept apart here.

One experiment concerns MCAO rats. As to the kind of experiment: Combined Middle Cerebral and Ipsilateral Common Carotid Occlusion in the Rat (MCAO): collateral zone and hemispheric infarct. Type of experiment: in vivo, Adult male Fisher (F-344) rats. Conditions: for response vs control in vivo at 3 mg/kg: 3 mg/kg IP; for response vs control in vivo at 15 mg/kg: 15 mg/kg IP. From the text:
Occlusion of the proximal part of the middle cerebral artery (MCA) is a common cause of stroke in man and can be accomplished surgically in experimental animals. […] We have combined distal MCA occlusion with ipsilateral common carotid ligation in an attempt to produce reproducible,focal cerebral ischemic infarcts.
The skin on the ventral side of the neck and the left temporal-parietal region was shaved. An incision was made in the neck and the left common carotid artery was doubly ligated and cut between the sutures. The incision was closed with 4-0 silk. Another incision was then made behind the left eye and the skin was held back with retractors. The exposed temporalis muscle was electrocauterized (Jarit Bipolar Coagulator) and partially removed. The upper part of the lower jaw bone was also removed. Deep surgery was performed with the aid of a Zeiss OPMI 99 surgical microscope. A 1 to 2-mm diameter craniotomy was made about 1 mm anterior to where the rostral end of the zygoma fuses to the squamosal bone. To prevent the drill from going through the dura, the burr hole was not drilled completely through the skull. Bone remaining after drilling was removed with forceps. The dura was pierced and reflected with a fine probe.
At this point the rat was injected with 0.3 ml of 2% Evans blue dye in saline via the tail vein. Evans blue binds to serum albumin and will not pass the blood-brain barrier unless damage has occurred, such as damage induced by ischemia. A small hook was then positioned under the MCA and the MCA was lifted away from the cortex. A jeweler-type bipolar forceps was introduced and the MCA was electrocauterized and separated. Gelfoam was put over the craniotomy and the wound was closed with 4-0 silk. The rats were then taken off the halothane and were allowed to wake up. Total anesthesia time was typically 30 minutes.
On Day 2 following MCA occlusion, the rats were anesthetized with ketamine (150 mg/kg, IP) and sacrificed. Cerebral tissue fixation was initiated by perfusion of 10% neutralized, buffered formalin for five minutes. Brains were removed and stored in the fixative until analysis.
For evaluation of the extent of cerebral ischemic injury, the brains were cut coronally in three different locations. The first section was at the level where the MCA was ligated. The other two sections were 2 mm anterior and 2 mm posterior to the first. Using an ausJena Citoval microscope with a drawing tube and an Apple II plus computer with a Houston Instrument digitizing pad, a software routine to measure the area of the ischemic damage as indicated by the extent of Evans blue tissue extravasation was employed. The software package was purchased from R&M Biometrics (Nashville, Tenn.) and is titled Bioquant II. From the lesion areas (mm^2) obtained from the Bioquant II program, we estimated the hemispheric extent (mm^3) of ischemic damage between the anterior and posterior sections by computing and adding the volume of two truncated cones.
The Bioquant II image analysis system was used to quantitate ischemic injury as it was identified by Evans blue extravasation.

For the next experiment, the system named is rats. As to the kind of experiment: Anesthesia in rats after dosing (impaired consciousness, lack of righting reflex; duration). Type of experiment: in vivo, Adult male Fisher (F-344) rats. Conditions: time from administration to regaining consciousness. From the text:
The duration of anesthesia is that time elapsed between administration of the test substance and the test animal regaining consciousness.

Setting [1] is: 10 mg/kg IP, 30 min and 24 h after occlusion, historical controls, read-out: Collateral Zone Infarct (% of Control).
Setting [2] is: 10 mg/kg IP, 30 min and 24 h after occlusion, historical controls, read-out: Hemispheric Infarct (% of Control).
[3] abbreviates: 30 mg/kg IP, 30 min and 24 h after occlusion, historical controls, read-out: Collateral Zone Infarct (% of Control).
Where [4] appears, read: 30 mg/kg IP, 30 min and 24 h after occlusion, historical controls, read-out: Hemispheric Infarct (% of Control).
The mark [5] stands for this setting: 30 min and 24 h after occlusion, historical controls, read-out: Collateral Zone Infarct (% of Control).
Where [6] appears, read: 30 min and 24 h after occlusion, historical controls, read-out: Hemispheric Infarct (% of Control).
[7] abbreviates: ip, read-out: Collateral Zone Infarct (% of Control).
The mark [8] stands for this setting: ip, read-out: Hemispheric Infarct (% of Control).

Turning to `CSc1ccc2nc(N)sc2c1` [Compound 2, 2-amino-6-methylthiobenzothiazole], the response vs control in vivo at 10 mg/kg stood at 72% in the experiment on MCAO rats (setting [1]) and 88% in the experiment with MCAO rats (setting [2]). The values for the response vs control in vivo at 30 mg/kg with MCAO rats (setting [3]) and in the experiment on MCAO rats (setting [4]) were 100% and 106%, respectively.

As for `CS(=O)(=O)c1ccc2nc(N)sc2c1` [Compound 4, 2-amino-6-methylsulphonylbenzothiazole], the response vs control in vivo at 10 mg/kg in the experiment with MCAO rats (setting [1]) was determined as 77%; with MCAO rats (setting [2]), 83%. Also, the response vs control in vivo at 30 mg/kg was found to be 58% with MCAO rats (setting [3]) and 86% in the experiment on MCAO rats (setting [4]).

In the case of `CCOc1ccc2nc(N)sc2c1` [Compound 6, 2-amino-6-ethoxybenzothiazole], the response vs control in vivo at 10 mg/kg came to 94% in the experiment on MCAO rats (setting [1]) and 115% with MCAO rats (setting [2]). Besides, the response vs control in vivo at 30 mg/kg with MCAO rats (setting [3]) was found to be 16%; with MCAO rats (setting [4]), 59%.

For the compound `Nc1nc2ccc(Br)cc2s1` [Compound 7, 2-amino-6-bromobenzothiazole], the response vs control in vivo at 10 mg/kg worked out at 69% in the experiment on MCAO rats (setting [1]) and 88% in the experiment with MCAO rats (setting [2]). Further, the response vs control in vivo at 30 mg/kg came out at 59% in the experiment on MCAO rats (setting [3]) and 68% in the experiment with MCAO rats (setting [4]). Besides, the “Anesthesia (duration)” value in the experiment on rats (30 mg/kg IP) was greater than 5 h.

In the case of `Nc1nc2ccc([N+](=O)[O-])cc2s1` [Compound 8, 2-amino-6-nitrobenzothiazole], the response vs control in vivo at 10 mg/kg with MCAO rats (setting [1]) is 92%; in the experiment with MCAO rats (setting [2]), 93%. For the same compound, the response vs control in vivo at 30 mg/kg was 24% in the experiment on MCAO rats (setting [3]) and 62% in the experiment on MCAO rats (setting [4]). Moreover, the “Anesthesia (duration)” value in the experiment on rats (30 mg/kg IP) came to 4 h.

Turning to `Nc1nc2ccc(OC(F)(F)F)cc2s1` [Compound 9, 2-amino-6-trifluoromethoxybenzothiazole], the response vs control in vivo at 3 mg/kg with MCAO rats (setting [5]) was determined as 117%; in the experiment with MCAO rats (setting [6]) it was 99%. The response vs control in vivo at 10 mg/kg was determined as 43% in the experiment on MCAO rats (setting [1]) and 66% in the experiment on MCAO rats (setting [2]). The response vs control in vivo at 15 mg/kg in the experiment with MCAO rats (setting [5]) is 42%; in the experiment on MCAO rats (setting [6]), 82%. The response vs control in vivo at 30 mg/kg was determined as 0% in the experiment with MCAO rats (setting [3]) and 44% with MCAO rats (setting [4]). Moreover, the “Anesthesia (duration)” value in the experiment on rats (30 mg/kg IP) was 1 to 2 h.

Consider `Nc1nc2ccc(C(F)(F)F)cc2s1` [Compound 10, 2-amino-6-trifluoromethylbenzothiazole], for which the response vs control in vivo at 3 mg/kg worked out at 156% in the experiment with MCAO rats (setting [5]) and 131% in the experiment on MCAO rats (setting [6]). Further, the response vs control in vivo at 10 mg/kg was 51% with MCAO rats (setting [1]) and 53% in the experiment on MCAO rats (setting [2]).

As to `Cc1cc(C)c2nc(N)sc2c1` [Compound 12, 2-amino-4,6-dimethylbenzothiazole], the results for the response vs control in vivo at 10 mg/kg in the experiment on MCAO rats (setting [1]) and in the experiment with MCAO rats (setting [2]) were 91% and 79%, respectively. Moreover, the response vs control in vivo at 30 mg/kg in the experiment on MCAO rats (setting [3]) is 68%; in the experiment on MCAO rats (setting [4]), 76%.

Regarding `COc1cccc2sc(N)nc12` [Compound 13, 2-amino-4-methoxybenzothiazole], the response vs control in vivo at 3 mg/kg amounted to 85% in the experiment on MCAO rats (setting [5]) and 90% in the experiment with MCAO rats (setting [6]). Besides, the values for the response vs control in vivo at 10 mg/kg in the experiment with MCAO rats (setting [1]) and in the experiment on MCAO rats (setting [2]) were 115% and 121%, respectively. Besides, the “Anesthesia (duration)” value with rats (10 mg/kg IP) is greater than 5 h.

Take `Cc1cccc2sc(N)nc12` [Compound 14, 2-amino-4-methylbenzothiazole]: the response vs control in vivo at 10 mg/kg with MCAO rats (setting [1]) turned out to be 69%; with MCAO rats (setting [2]), 72%. The values for the response vs control in vivo at 30 mg/kg with MCAO rats (setting [3]) and in the experiment with MCAO rats (setting [4]) were 40% and 54%, respectively.

As for `Nc1nc2c(C(F)(F)F)cccc2s1` [Compound 16, 2-amino-4-trifluoromethylbenzothiazole], the response vs control in vivo at 10 mg/kg turned out to be 63% with MCAO rats (setting [1]) and 99% in the experiment with MCAO rats (setting [2]). Further, the response vs control in vivo at 30 mg/kg in the experiment on MCAO rats (setting [3]) stood at 15%; in the experiment with MCAO rats (setting [4]), 61%.

As for `Nc1nc2c(F)cc(F)cc2s1` [Compound 17, 2-amino-4,6-difluorobenzothiazole], the response vs control in vivo at 10 mg/kg in the experiment on MCAO rats (setting [1]) amounted to 137%; in the experiment with MCAO rats (setting [2]) it was 139%. The response vs control in vivo at 30 mg/kg was found to be 105% in the experiment with MCAO rats (setting [3]) and 115% in the experiment with MCAO rats (setting [4]).

`COc1ccc2sc(N)nc2c1` [Compound 18, 2-amino-5-methoxybenzothiazole]: in the experiment on MCAO rats (setting [7]), the response vs control in vivo at 10 mg/kg amounted to 124% and the response vs control in vivo at 30 mg/kg came to 54%. Moreover, in the experiment on MCAO rats (setting [8]), the response vs control in vivo at 10 mg/kg came to 117% and the response vs control in vivo at 30 mg/kg turned out to be 82%.

As to `Nc1nc2cc(C(F)(F)F)ccc2s1` [Compound 19, 2-amino-5-trifluoromethylbenzothiazole], the response vs control in vivo at 10 mg/kg in the experiment with MCAO rats (setting [1]) came out at 48%; in the experiment on MCAO rats (setting [2]) it was 63%. Further, the figures for the response vs control in vivo at 30 mg/kg in the experiment with MCAO rats (setting [3]) and in the experiment with MCAO rats (setting [4]) were 53% and 79%, respectively.

`Nc1nc2c(ccc3ccccc32)s1` [Compound 20, 2-amino-naptho[1,2-d]thiazole]: the response vs control in vivo at 10 mg/kg in the experiment on MCAO rats (setting [1]) is 63%; in the experiment on MCAO rats (setting [2]) it was 84%. Besides, the response vs control in vivo at 30 mg/kg worked out at 81% with MCAO rats (setting [3]) and 92% in the experiment on MCAO rats (setting [4]).

For `CCNc1nc2ccccc2s1` [Compound 21, 2-ethylaminobenzothiazole], the figures for the response vs control in vivo at 10 mg/kg in the experiment with MCAO rats (setting [1]) and in the experiment on MCAO rats (setting [2]) were 62% and 71%, respectively. The response vs control in vivo at 30 mg/kg in the experiment with MCAO rats (setting [3]) was found to be 116%; with MCAO rats (setting [4]) it was 89%.

As to `c1ccc(CNc2nc3ccccc3s2)cc1` [Compound 22, N-benzyl-2-benzothiazolamine], the response vs control in vivo at 10 mg/kg came to 56% with MCAO rats (setting [1]) and 76% in the experiment on MCAO rats (setting [2]). Also, the results for the response vs control in vivo at 30 mg/kg with MCAO rats (setting [3]) and in the experiment on MCAO rats (setting [4]) were 98% and 89%, respectively.

For the compound `CN1CCCC1CCNc1nc2ccccc2s1` (centres unmarked) [Compound 23, 2-[[2-(1-methyl-2-pyrrolidinyl)ethyl]amino]-benzothiazole], the values for the response vs control in vivo at 10 mg/kg in the experiment with MCAO rats (setting [1]) and in the experiment with MCAO rats (setting [2]) were 66% and 84%, respectively. Also, the response vs control in vivo at 30 mg/kg was found to be 18% with MCAO rats (setting [3]) and 72% in the experiment with MCAO rats (setting [4]).
